Measurements reported in US20100061982A1, “3-SUBSTITUTED-1H-INDOLE, 3-SUBSTITUTED-1H-PYRROLO[2,3-B]PYRIDINE AND 3-SUBSTITUTED-1H-PYRROLO[3,2-B]PYRIDINE COMPOUNDS, THEIR USE AS MTOR KINASE AND PI3 KINASE INHIBITORS, AND THEIR SYNTHESES” (priority 2008, published 2010).
Values after ≈ are worked out from the molar mass of the structure shown. Like-named read-outs stand apart in the source and are kept apart here.

Legend:
PI3K alpha = PI3K alpha (Homo sapiens, UniProt P42336); assay: PI3K-alpha Fluorescence Polarization Assay; assay type: biochemical
[1] = Microsome Stability (15 min), rat; assay type: in vitro ADME; settings: microsomes
[2] = CACO2 permeability a-b/b-a; assay type: in vitro ADME; settings: human, Caco-2; for Papp A→B: a − b (first value of cell), read-out: CACO2 Pe a − b; for Papp B→A: b − a (second value of cell), read-out: CACO2 Pe b − a
[3] = Microsome Stability (15 min), human; assay type: in vitro ADME; settings: microsomes
[4] = In vivo blood/plasma and tumor levels of prodrug and metabolites after 50 mg, kg po; settings: 50 mg; for plasma prodrug, Dosed @ 50 mg, kg po (precursor phenolic compound dosed): time not stated in Table VIIb
[5] = Plasma Stability (37° C.), rat
[6] = Microsome Stability (15 min), nude mouse; assay type: in vitro ADME; settings: microsomes
[7] = Buffer Stability (37° C.)
[8] = PAMPA permeability pH 7.4
[9] = Plasma Stability (37° C.), nude mouse
Solubility pH 7.4 = settings: pH 7.4, aqueous buffer
[10] = Phase I (NADPH), read-out: Microsome Stability (15 min) T ½ Phase I rat
[11] = Phase I (NADPH), read-out: Microsome Stability (15 min) T ½ Phase I human
[12] = nude, mouse, Phase I (NADPH), read-out: Microsome Stability (15 min) T ½ Phase I nude mouse

Sequence of PI3K alpha (P42336 whole entry, species assumed): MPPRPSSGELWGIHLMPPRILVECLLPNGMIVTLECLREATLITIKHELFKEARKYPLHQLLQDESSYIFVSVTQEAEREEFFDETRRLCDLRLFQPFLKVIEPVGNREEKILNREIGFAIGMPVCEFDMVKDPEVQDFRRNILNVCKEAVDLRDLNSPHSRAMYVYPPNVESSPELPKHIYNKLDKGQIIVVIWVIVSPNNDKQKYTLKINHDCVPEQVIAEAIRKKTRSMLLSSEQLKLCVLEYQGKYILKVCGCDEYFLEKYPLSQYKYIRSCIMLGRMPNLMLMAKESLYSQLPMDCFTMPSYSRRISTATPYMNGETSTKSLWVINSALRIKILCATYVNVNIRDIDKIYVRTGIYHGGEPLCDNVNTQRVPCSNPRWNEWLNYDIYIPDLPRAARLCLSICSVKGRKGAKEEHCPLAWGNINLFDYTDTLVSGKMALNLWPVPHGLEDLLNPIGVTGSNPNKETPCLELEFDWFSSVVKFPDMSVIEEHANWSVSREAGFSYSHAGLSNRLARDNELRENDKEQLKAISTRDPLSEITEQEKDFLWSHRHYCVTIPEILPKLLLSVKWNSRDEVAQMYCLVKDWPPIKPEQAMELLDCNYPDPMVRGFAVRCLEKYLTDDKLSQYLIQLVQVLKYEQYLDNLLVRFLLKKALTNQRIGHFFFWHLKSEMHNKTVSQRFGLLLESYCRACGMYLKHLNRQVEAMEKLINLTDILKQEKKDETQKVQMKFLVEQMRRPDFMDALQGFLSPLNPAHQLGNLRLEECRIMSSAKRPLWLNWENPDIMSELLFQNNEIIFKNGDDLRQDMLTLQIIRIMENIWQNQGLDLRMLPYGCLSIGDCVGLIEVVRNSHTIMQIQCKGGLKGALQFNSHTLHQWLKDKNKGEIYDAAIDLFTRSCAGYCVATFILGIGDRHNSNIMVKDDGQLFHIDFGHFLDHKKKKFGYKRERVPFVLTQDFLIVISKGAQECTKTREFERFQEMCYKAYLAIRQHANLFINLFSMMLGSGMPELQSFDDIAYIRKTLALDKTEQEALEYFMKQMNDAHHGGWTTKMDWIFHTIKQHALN
Sequence of PI3K alpha (P27986 whole entry partner, species assumed): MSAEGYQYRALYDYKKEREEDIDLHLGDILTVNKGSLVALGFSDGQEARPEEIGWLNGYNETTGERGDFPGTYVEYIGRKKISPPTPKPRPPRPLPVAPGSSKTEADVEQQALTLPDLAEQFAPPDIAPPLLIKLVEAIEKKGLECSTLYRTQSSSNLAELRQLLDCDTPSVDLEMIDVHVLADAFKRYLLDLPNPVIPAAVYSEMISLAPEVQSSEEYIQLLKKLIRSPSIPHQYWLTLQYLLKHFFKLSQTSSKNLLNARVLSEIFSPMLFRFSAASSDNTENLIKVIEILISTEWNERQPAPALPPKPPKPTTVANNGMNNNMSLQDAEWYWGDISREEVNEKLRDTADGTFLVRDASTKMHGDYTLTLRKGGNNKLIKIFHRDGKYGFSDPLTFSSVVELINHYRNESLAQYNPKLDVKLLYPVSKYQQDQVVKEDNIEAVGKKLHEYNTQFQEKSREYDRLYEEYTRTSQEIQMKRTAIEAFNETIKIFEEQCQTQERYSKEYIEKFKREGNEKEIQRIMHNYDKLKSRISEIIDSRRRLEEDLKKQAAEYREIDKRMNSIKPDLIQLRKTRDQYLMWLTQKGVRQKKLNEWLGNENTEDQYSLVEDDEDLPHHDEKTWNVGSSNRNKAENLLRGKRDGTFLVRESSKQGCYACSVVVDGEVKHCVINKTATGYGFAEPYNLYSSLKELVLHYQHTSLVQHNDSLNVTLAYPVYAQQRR

SMILES | IC50 (PI3K alpha; read-out: PI3K alpha Mean IC50) [µM] | half-life [1, 10] [min] | Papp A→B [2] [×10⁻⁶ cm/s] | Papp B→A [2] [×10⁻⁶ cm/s] | half-life [3, 11] [min] | Plasma Stability (37° C.) % Remaining (3-3.5 hours) rat [5] [%] | half-life [6, 12] [min] | Buffer Stability (37° C.) % Remaining (at 16-23 hours) SGF [7] [%] | Buffer Stability (37° C.) % Remaining (at 16-23 hours) SIF [7] [%] | Buffer Stability (37° C.) % Remaining (at 16-23 hours) pH 1 [7] [%] | Buffer Stability (37° C.) % Remaining (at 16-23 hours) pH 4.5 [7] [%] | Buffer Stability (37° C.) % Remaining (at 16-23 hours) pH 6.6 [7] [%] | Buffer Stability (37° C.) % Remaining (at 16-23 hours) pH 7.4 [7] [%] | Buffer Stability (37° C.) % Remaining (at 16-23 hours) pH 9 [7] [%] | PAMPA Pe [8] | Plasma Stability (37° C.) % Remaining (3-3.5 hours) nude mouse [9] [%] | solubility (Solubility pH 7.4) [µg/mL] | other results
COc1ccc2[nH]c(-c3ccccc3)c(/C=C3\Oc4cc(O)ccc4C3=O)c2c1 [(2Z)-6-hydroxy-2-[(5-methoxy-2-phenyl-1H-indol-3-yl)methylene]-1-benzofuran-3(2H)-one] | 0.0013 | 18 | 0.03 | 0.11 | 15 | 111 | 19 | 93 | 97 | 97 | 98 | 98 | 98 | 99 | 0.18 10e−6 cm/s | 83 | – | half-life ([1]; value after the slash in Table VIc, read-out: Microsome Stability (15 min) T ½ rat, second value of cell): 4 min; half-life ([3]; value after the slash in Table VIc, read-out: Microsome Stability (15 min) T ½ human, second value of cell): 3 min; plasma prodrug, Dosed @ 50 mg, kg po (precursor phenolic compound dosed) ([4]; first value): bql, bql; plasma prodrug, Dosed @ 50 mg, kg po (precursor phenolic compound dosed) ([4]; second value): bql, bql; half-life ([6]; nude, mouse, value after the slash in Table VIc, read-out: Microsome Stability (15 min) T ½ nude mouse, second value of cell): 4 min
COc1ccc2c(c1)c(/C=C1\Oc3cc(OC(=O)N(C)c4ccccc4)cc(OC(=O)N(C)c4ccccc4)c3C1=O)cn2CCCN(C)C [Example 2, (2Z)-2-({1-[3-(dimethylamino)propyl]-5-methoxy-1H-indol-3-yl}methylene)-3-oxo-2,3-dihydro-1-benzofuran-4,6-diyl bis[methyl(phenyl)carbamate]] | – | > 30 | 0.04 | 0.08 | 24 | 22 | – | 100 | 100 | 100 | 100 | 100 | 100 | 100 | 0 10e−6 cm/s | 10 | – | IC50 (PI3K alpha): > 10 µM; plasma prodrug concentration ([4]; 0.5 h): 486 ng, ml; plasma prodrug concentration ([4]; 2 h): 757 ng, ml; half-life ([6]; Phase I (NADPH), read-out: Microsome Stability (15 min) T ½ Phase I nude mouse): > 30 min
COc1ccc2c(c1)c(/C=C1\Oc3cc(OC(=O)OC(C)C)cc(OC(=O)OC(C)C)c3C1=O)cn2CCCN(C)C [Example 5, (2Z)-2-({1-[3-(dimethylamino)propyl]-5-methoxy-1H-indol-3-yl}methylene)-3-oxo-2,3-dihydro-1-benzofuran-4,6-diyl diisopropyl biscarbonate] | > 9.75 | < 1 | – | – | 3 | 0 | 3 | 94 | 0 | 95 | 82 | 63 | 14 | 0 | 0 10e−6 cm/s | 16 | 3 (≈ 5.17 µM) | –
COc1ccc2[nH]c(-c3ccccc3)c(/C=C3\Oc4cc(OC(=O)OC(C)C)cc(OC(=O)OC(C)C)c4C3=O)c2c1 [Example 7, diisopropyl (2Z)-2-[(5-methoxy-2-phenyl-1H-indol-3-yl)methylene]-3-oxo-2,3-dihydro-1-benzofuran-4,6-diyl biscarbonate] | 0.896 | 3 | – | – | 5 | 0 | > 30 | 93 | 0 | 94 | 91 | 59 | 16 | 0 | 0 10e−6 cm/s | 22 | – | –
COc1ccc2c(c1)c(/C=C1\Oc3cc(OC(=O)CC(C)C)cc(OC(=O)CC(C)C)c3C1=O)cn2CCCN(C)C [Example 9, (2Z)-2-({1-[3-(dimethylamino)propyl]-5-methoxy-1H-indol-3-yl}methylene)-3-oxo-2,3-dihydro-1-benzofuran-4,6-diyl bis(3-methylbutanoate)] | > 10 | 4 | – | – | 6 | 0 | 6 | 77 | 0 | 73 | 66 | 46 | 0 | 0 | 0 10e−6 cm/s | 8 | 1 (≈ 1.73 µM) | –
COc1ccc2[nH]c(-c3ccccc3)c(/C=C3\Oc4cc(OC(=O)C(C)(C)C)cc(OC(=O)C(C)(C)C)c4C3=O)c2c1 [Example 10, (2Z)-2-[(5-methoxy-2-phenyl-1H-indol-3-yl)methylene]-3-oxo-2,3-dihydro-1-benzofuran-4,6-diyl bis(2,2-dimethylpropanoate)] | 2.78 | 12 | – | – | 19 | 6 | – | 95 | 0 | 86 | 92 | 72 | 44 | 0 | 0 10e−6 cm/s | 0 | 2 (≈ 3.52 µM) | –
